According to US20240051978A1, “3-CYCLIC AMINE-INDOLE DERIVATIVES AS SEROTONERGIC AGENTS FOR THE TREATMENT OF CNS DISORDERS” (MINDSET PHARMA INC., priority 2020, published 2024):

Columns and labels:
[1] = Liver microsomes stability, mouse; settings: for Remaining Percentage (%) 0 min / Remaining Percentage (%) 60 min: Mouse; for CLint scaled at 2 μM / half-life at 2 μM / microsomal CLint at 2 μM: male, mouse, microsomes
Description: (§1) The objective of this study was to estimate in vitro metabolic stability of 1-12 in pooled human and male mouse liver microsomes. The concentrations of parent compounds in reaction systems were evaluated by LC-MS/MS for estimating the stability in pooled human and male mouse liver microsomes. The in vitro intrinsic clearances of test compounds were determined as well.
(§2) A master solution in the “Incubation Plate” containing phosphate buffer, ultra-pure H2O, MgCl2 solution and liver microsomes was made according to Table 3. The mixture was pre-warmed at 37° C. water bath for 5 minutes.
(§3) 40 μL of 10 mM NADPH solution was added to each well. The final concentration of NADPH was 1 mM. The negative control samples were prepared by replacing NADPH with 40 μL of ultra-pure H2O. Samples were prepared in duplicate. Negative controls were prepared in singlet.
(§4) The reaction was started with the addition of 4 μL of 200 μM exemplary test compounds or control compounds to each master solution to get the final concentration of 2 μM. This study was performed in duplicate.
(§5) Aliquots of 50 μL were taken from the reaction solution at 0, 15, 30, 45 and 60 minutes. The reaction solutions were stopped by the addition of 4 volumes of cold methanol with IS (100 nM alprazolam, 200 nM imipramine, 200 nM labetalol and 2 μM ketoprofen). Samples were centrifuged at 3,220 g for 40 minutes. Aliquot of 90 μL of the supernatant was mixed with 90 μL of ultra-pure H2O and then was used for LC-MS/MS analysis.
(§6) LC/MS analysis was performed for all samples from this study using a Shimadzu liquid chromatograph separation system equipped with degasser DUG-20A5R; solvent delivery unit LC-30AD; system controller SIL-30AC; column oven CTO-30A; CTC Analytics HTC PAL System; Mass spectrometric analysis was performed using an Triple Quad™ 5500 instrument.
(§7) All calculations were carried out using Microsoft Excel. Peak area ratios of test compound to internal standard (listed in the below table) were determined from extracted ion chromatograms.
(§8) All calculations were carried out using Microsoft Excel. Peak areas were determined from extracted ion chromatograms. The slope value, k, was determined by linear regression of the natural logarithm of the remaining percentage of the parent drug vs. incubation time curve.
(§9) The in vitro half-life (in vitro t½) was determined from the slope value:
(§10) Conversion of the in vitro t½ (min) into the in vitro intrinsic clearance (in vitro CLint, in μL/min/mg proteins) was done using the following equation (mean of duplicate determinations): […]

[2] = biological target: human 5-HT2A receptor (Homo sapiens (Human), UniProt P28223); assay: Radioligand binding assay ([3H]-ketanserin) on human 5-HT2A receptor; settings: [3H]-ketanserin competition; read-out: h5-HT2A IC50
Description: • i. The assay buffer was prepared following the table below;
• ii. 8 doses of reference and exemplary test compounds were prepared starting from 10 mM stock solution as requested by 5-fold serial dilutions with 100%; • iii. (v/v) DMSO was prepared: a. 50 μl/well of 0.5% (v/v) PEI was added to UniFilter-96 GF/B plates. The plates were sealed and incubates at 4° C. for 3 hrs; b. After incubation, the plates were washed 3 times with ice-cold wash buffer (50 mM Tris, pH7.4); • iv. Preparation of assay plates: a. Cell membrane was diluted with assay buffer and 330 μl/well was added to 96 round deep well plates to reach a concentration of 20 μg/well; b. 8 concentrations of reference or exemplary test compounds were prepared and added 110 μl/well to 96 round deep well plates; c. [3H]-ketanserin was diluted with assay buffer to 5 nM (5× final concentration) and added 110 μl/well to 96 round deep well plates. • v. The plate were centrifuged at 1000 rpm for 30 secs and then agitated at 600 rpm, R.T. for 5 min. • vi. The plates were sealed and incubated at 27° C. for 90 min. • vii. The incubation was stopped by vacuum filtration onto GF/B filter plates followed by 4 times washing with ice-cold wash buffer (50 mM Tris, pH7.4). • vii. […] The filter plates were sealed and 40 μl/well of scintillation cocktail added. • x. The plate was read by using a Microbeta2 microplate counter.
For reference and exemplary test compounds, the results are expressed as % Inhibition, using the normalization equation: N=100−100×(U−C2)/(C1−C2), where U is the unknown value, C1 is the average of high controls, and C2 is the average of low controls. The IC50 was determined by fitting percentage of inhibition as a function of compound concentrations with Hill equation using XLfit.

[3] = biological target: human 5-HT2A (h5-HT2A) receptor (Homo sapiens (Human), UniProt P28223); assay: FLIPR assay, human 5-HT2A receptor under agonist mode; format: cell-based; settings: FLIPR calcium
Description: I. Assessment of the Activated Effect of Exemplary Compounds of Formula I Targeting on Human 5-HT2A (h5-HT2A) Receptor Under Agonist Mode:
1. the Cells were cultured in cell culture medium (DMEM containing 10% FBS 1×penicillin-streptomycin 300 μg/ml G418 and 100 μg/ml hygromycin B) at 37° C., 5% (v/v) CO2.
2. One day before the assays, the cells were detached using TrypLE™ Express and cells were counted using cell counter.
3. 20000 cells/well were seeded in 30 μl/well culture medium to a 384-well cell plate and the cells were incubated overnight at 37° C., 5% (v/v) CO2.
4. On the assay day, 2× dye solution was prepared following the manual of the FLIPR® Calcium 6 Assay Kit: i. The dye was diluted with assay buffer(20 mM HEPES in 1×HBSS, PH7.4); ii. Probenecid was added to the final concentration of 5 mM; iii. Vortex vigorously for 1-2 minutes.
5. Medium was removed from cell plate by flicking the cell plate on towel papers.
6. 10 μl of assay buffer and 10 μl of 2× dye solution was added to each well of the cell plate.
7. The cell plate was placed on plate shaker, and the plate was agitated at 600 rpm for 2 minutes. The plate was incubated at 37° C. for 2 hours followed by additional 15-minute incubation at 25° C.
8. 3× compound in assay buffer was prepared: a. reference compounds were diluted to required concentration with DMSO. Compounds were added to a 384-well compound plate; b. Serial dilutions were performed; c. 10 mM test compounds were added to the compound plate, 3-fold serial dilutions were performed. d. […] 20 μl/well assay buffer was added to the compound plate; f. The plate was mixed on plate shaker for 2 mins;
i. The normalized fluorescence reading (RFU) was calculated as shown below, wherein Fmax and Fmin stand for maximum and minimum of calcium signal during defined time window: RFU=Fmax−Fmin
ii. The percentage activation was calculated by using following equation: […]
iii. EC50 was calculated by fitting % activation against log of compound concentrations with Hill equation using XLfit.

[4] = Liver microsomes stability, human; settings: for Predicted hepatic CL: Human liver microsomes, with NADPH; for Remaining Percentage (%) 0 min / Remaining Percentage (%) 60 min: Human; for CLint scaled at 2 μM / half-life at 2 μM / microsomal CLint at 2 μM: human, microsomes
Description: as §1, §2, §3, §4, §5, §6, §7, §8, §9, §10

[5] = Liver microsomes stability, rat; settings: for Predicted hepatic CL: Rat liver microsomes, with NADPH; for Remaining Percentage (%) 0 min / Remaining Percentage (%) 60 min: Rat; for CLint scaled at 2 μM / half-life at 2 μM / microsomal CLint at 2 μM: rat, microsomes
Description: as §1, §2, §3, §4, §5, §6, §7, §8, §9, §10

[6] = Mouse liver microsomes, with NADPH

| Structure (SMILES) | Predicted hepatic CL [1, 6] [mL/min/kg] | Remaining Percentage (%) 0 min ([1]; With NADPH) [%] | Remaining Percentage (%) 60 min ([1]; With NADPH) [%] | Remaining Percentage (%) 0 min ([1]; Without NADPH) [%] | Remaining Percentage (%) 60 min ([1]; Without NADPH) [%] | CLint scaled at 2 μM [1] [mL/min/kg] | IC50 [2] [µM] | EC50 [3] [µM] | Predicted hepatic CL [4] [mL/min/kg] | Remaining Percentage (%) 0 min ([4]; With NADPH) [%] | Remaining Percentage (%) 60 min ([4]; With NADPH) [%] | Remaining Percentage (%) 0 min ([4]; Without NADPH) [%] | Remaining Percentage (%) 60 min ([4]; Without NADPH) [%] | CLint scaled at 2 μM [4] [mL/min/kg] | Predicted hepatic CL [5] [mL/min/kg] | Remaining Percentage (%) 0 min ([5]; With NADPH) [%] | Remaining Percentage (%) 60 min ([5]; With NADPH) [%] | Remaining Percentage (%) 0 min ([5]; Without NADPH) [%] | Remaining Percentage (%) 60 min ([5]; Without NADPH) [%] | CLint scaled at 2 μM [5] [mL/min/kg] | also measured |
| --- | --- | --- | --- | --- | --- | --- | --- | --- | --- | --- | --- | --- | --- | --- | --- | --- | --- | --- | --- | --- | --- |
| [2H]C([2H])N1CCC(c2c[nH]c3cccc(OCc4ccccc4)c23)C1 (single isomer, unassigned) [Compound I-36, 4-(benzyloxy)-3-(1-(methyl-d2)pyrrolidin-3-yl)-1H-indole] | 74.95 | 100.00 | 4.62 | 100.00 | 101.31 | 448 | > 10 | > 10 | 12.51 | 100.00 | 46.97 | 100.00 | 112.84 | 31.6 | 33.57 | 100.00 | 23.82 | 100.00 | 95.23 | 85.7 | half-life at 2 μM [1]: 13.5 min; microsomal CLint at 2 μM [1]: 102 µL/min/mg; half-life at 2 μM [4]: 55 min; microsomal CLint at 2 μM [4]: 25.2 µL/min/mg; half-life at 2 μM [5]: 29 min; microsomal CLint at 2 μM [5]: 47.8 µL/min/mg |
| [2H]C1([2H])CC(c2c[nH]c3cccc(OCc4ccccc4)c23)C([2H])([2H])N1C (single isomer, unassigned) [Compound I-37, 4-(benzyloxy)-3-(1-methylpyrrolidin-3-yl-2,2,5,5-d4)-1H-indole] | 55.10 | 100.00 | 37.75 | 100.00 | 93.26 | 142 | < 1 | > 10 | 9.50 | 100.00 | 65.70 | 100.00 | 99.55 | 17.6 | 26.15 | 100.00 | 43.53 | 100.00 | 101.84 | 49.7 | half-life at 2 μM [1]: 42.7 min; microsomal CLint at 2 μM [1]: 32.5 µL/min/mg; half-life at 2 μM [4]: 99 min; microsomal CLint at 2 μM [4]: 14 µL/min/mg; half-life at 2 μM [5]: 50 min; microsomal CLint at 2 μM [5]: 27.7 µL/min/mg |
| [2H]C1([2H])CC(c2c[nH]c3cccc(O)c23)C([2H])([2H])N1 (stereo not drawn) [Compound I-33, 3-(pyrrolidin-3-yl-2,2,5,5-d4)-1H-indol-4-ol] | 0.00 | 100.00 | 103.45 | 100.00 | 118.32 | – | < 1 | > 10 | 1.24 | 100.00 | 96.89 | 100.00 | 115.64 | 1.32 | 15.15 | 100.00 | 70.49 | 100.00 | 105.30 | 20.9 | T1/2 (min) ([1]; Mouse liver microsomes, with NADPH, 2 μM): ∞; half-life at 2 μM [4]: 1320 min; microsomal CLint at 2 μM [4]: 1.05 µL/min/mg; half-life at 2 μM [5]: 119 min; microsomal CLint at 2 μM [5]: 11.7 µL/min/mg |
| CN(C)CCc1c[nH]c2cccc(O)c12 [Psilocin, 4-hydroxy-N,N-dimethyltryptamine, reference compound] | 29.00 | 100.00 | 74.57 | 100.00 | 91.98 | 42.8 | – | – | 8.64 | 100.00 | 70.16 | 100.00 | 87.13 | 14.8 | 18.53 | 100.00 | 62.68 | 100.00 | 96.98 | 27.9 | – |
| [2H]C([2H])N1C([2H])([2H])CC(c2c[nH]c3cccc(F)c23)C1([2H])[2H] (stereo not drawn) [Compound I-41, 4-fluoro-3-(1-(methyl-d2)pyrrolidin-3-yl-2,2,5,5-d4)-1H-indole] | – | – | – | – | – | – | 1 to 10 | 1 to 10 | – | – | – | – | – | – | – | – | – | – | – | – | – |
